Here are results for three molecules from publication PMC10353390, “Biological and Structural Analyses of New Potent Allosteric Inhibitors of HIV-1 Integrase” (Antimicrobial Agents and Chemotherapy, 2023).

Read-outs that look alike come from different tables or passages of the source.

On the set-up of data set [1]: method as in ref 47 = [47]; 47 Mitchell M , Balakrishnan M , Brizgys G , Cai R , Lansdon E , Mulato A , Osier M , Wang J , Yu H , Sakowicz R . 2017 . Novel non-catalytic site integrase inhibitor with improved resistance profile. Conditions: precluded further clinical investigation; cited from earlier work.
In data set [2] the test system is recombinant NL4-3 viruses with polymorphisms at IN positions 124 and 125. Put plainly: Multiple-round infection of MT4 cells with recombinant NL4-3 viruses polymorphic at IN positions 124 and 125. Format: cell-based, HIV-1. Put shortly: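 EC50 fold change relative to wild-type TT NL4-3 was derived from CellTiter-Glo viability of exponentially growing MT4 cells (10^6/mL). Cells were exposed for 2 h, with compounds, to NL4-3 clones bearing one of 15 IN 124/125 variants at MOI 0.001.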

For data set [3], the system named is VSV-G-pseudotyped NL4-3Δenv-luc. Nature of the data set: microbe, parasite or virus in culture. Conditions: Human immunodeficiency virus 1, NL43, MT4, read-out: EC50 in single-round infection. Format: cell-based, HIV-1.
A further data set deals with NL4-3 HIV-1 strain. Put plainly: Multiple-round infection assay in MT4 cells, NL4-3. Format: cell-based. Conditions: MT4 cells.
For the next data set, the system named is HXB2 HIV-1 strain. Nature of the data set: Multiple-round infection assay in MT4 cells, HXB2. Format: cell-based. Particulars: Human immunodeficiency virus 1, HXB2; multiple-round infection, MT4 cells; mean ± SD, n > 5; read-out: EC50 HXB2. The method, boiled down:
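Antiviral read-out was CellTiter-Glo luminescent viability of exponentially growing MT4 cells (10^6/mL). Cells were exposed to HIV-1 for 2 h at an MOI of 0.001 while compound was present at varying concentrations.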

A further data set concerns the target T1, HIV-1 IN (Human immunodeficiency virus type 1 group M subtype B, UniProt P12497).
T1 construct: made in house
Nature of the data set: HTRF IN multimerization assay. Particulars: mean ± SD. Format: biochemical. The source says:
A key property of INLAIs is the ability to promote HIV-1 IN homo-multimerization ([39][–][42]). […] The maximal signal (plateau) in our IN aggregation assay corresponds to the highest HTRF signal increase under saturating INLAI concentration, relative to baseline level. Thus, MUT916, MUT884, MUT871, and MUT872 increased HIV-1 IN aggregation 3.7 to 4.4-fold, while BDM-2, BI-224436, and S-I-82 did so 5 to 6-fold (Table 1).
(Time-resolved FRET reads energy transfer from a long-lived donor to a nearby acceptor.)

Data set [4] can be described thus: Cytotoxicity assay in MT4 cells. Format: cell-based. Particulars: human, MT4 cells (proliferating human T-cell line), CellTiter-Glo. The source says: Growth inhibition was monitored in a proliferating human T-cell line (MT4) with different concentrations of compounds, using the CellTiter-Glo luminescent reagent (Promega), as previously described ([12]).
In data set [5] the target is CCD of HIV-1 IN and IBD of LEDGF/p75 (Human immunodeficiency virus type 1 group M subtype B, UniProt P12497). Nature of the data set: biochemical.
Data set [6] concerns the target HIV-1 IN-LEDGF/p75 interaction (Human immunodeficiency virus type 1 group M subtype B, UniProt P12497). Put plainly: biochemical.
In data set [7] the test system is NL4-3 HIV-1 with INLAI-selected IN single point mutations. Format: cell-based.
The test system of data set [8] is lab-adapted and clinical HIV-1 isolates. Nature of the data set: Infection assays in primary T CD4+ lymphocytes. Format: cell-based. Particulars: Human immunodeficiency virus 1, Lymphocyte.
The subject of data set [9] is primary HIV-1 isolates with polymorphisms at IN positions 124 and 125. Put plainly: Multiple-round infection of MT4 cells with primary HIV-1 isolates polymorphic at IN positions 124 and 125. Format: cell-based. Particulars: primary isolate. The method, boiled down: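 Antiviral potency read as protection of cell viability (CellTiter-Glo luminescence). Infection at MOI 0.001 lasted 2 h with compound present at a range of concentrations, using MT4 cells at 10^6/mL in exponential growth.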

The test system of data set [10] is HIV-1 strains resistant to INSTIs, NRTIs, NNRTIs or PIs. Format: cell-based. Conditions: PI-resistant virus. Put shortly:
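Cell viability (CellTiter-Glo luminescence) served as read-out in MT4 cells at 10^6/mL, infected 2 h at MOI 0.001 in presence of graded compound concentrations. Viruses: resistance-mutation recombinants in NL4-3 backbone plus resistant clinical isolates.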

On the set-up of data set [11]: method as in ref 22 = [22]; 22 Meng X , Donazzolo Y , Kim B , Kim K . 2022 . The first-in-human clinical trial of STP0404, a novel potent HIV-1 allosteric integrase inhibitor . Poster PESUB2624th AIDS Conference , Montreal, Cana. Conditions: cited from earlier work.

For the molecule `Cc1cc2nc(-c3ccc4c(c3)c(C3CCN(C5COC5)CC3)nn4C)sc2c(-c2ccc(Cl)cc2)c1[C@H](OC(C)(C)C)C(=O)O` [GS-9822], in data set [1], the toxicity result is “renal and urinary bladder toxicity”.
For the molecule `Cc1cc(NS(=O)(=O)CC2CCCCC2)c(C)c(C(OC(C)(C)C)C(=O)O)c1-c1ccc2c(c1)CCCO2` (stereo not drawn) [S-I-82, reference compound], the “Fold change in EC50 relative to parental NL4-3, AA” value in data set [2] (recombinant NL4-3, IN 124/125 AA) was 1. For the same molecule, the “Fold change in EC50 relative to parental NL4-3, AM” value in data set [2] (recombinant NL4-3, IN 124/125 AM) stood at 1. The “Fold change in EC50 relative to parental NL4-3, AT” value in [2] (recombinant NL4-3, IN 124/125 AT) is recorded as 1. The “Fold change in EC50 relative to parental NL4-3, AV” value in [2] (recombinant NL4-3, IN 124/125 AV) amounted to 2. In addition, the “Fold change in EC50 relative to parental NL4-3, GA” value in [2] (recombinant NL4-3, IN 124/125 GA) turned out to be 3. In addition, the “Fold change in EC50 relative to parental NL4-3, GT” value in data set [2] (recombinant NL4-3, IN 124/125 GT) is given as 3. Besides, in data set [2] (recombinant NL4-3, IN 124/125 NA), the “Fold change in EC50 relative to parental NL4-3, NA” value came out at 10. The “Fold change in EC50 relative to parental NL4-3, NT” value in [2] (recombinant NL4-3, IN 124/125 NT) is 5. The “Fold change in EC50 relative to parental NL4-3, NV” value in data set [2] (recombinant NL4-3, IN 124/125 NV) was determined as 5. Besides, the “Fold change in EC50 relative to parental NL4-3, SA” value in data set [2] (recombinant NL4-3, IN 124/125 SA) came to 4. Also, the “Fold change in EC50 relative to parental NL4-3, ST” value in data set [2] (recombinant NL4-3, IN 124/125 ST) turned out to be 2. Also, the “Fold change in EC50 relative to parental NL4-3, TA” value in data set [2] (recombinant NL4-3, IN 124/125 TA) turned out to be 2. In data set [2] (recombinant NL4-3, IN 124/125 TM), the “Fold change in EC50 relative to parental NL4-3, TM” value amounted to 1. For the same molecule, the “Fold change in EC50 relative to parental NL4-3, TV” value in [2] (recombinant NL4-3, IN 124/125 TV) was found to be 1. Besides, in data set [3], the 50% effective concentration (EC50) (usually the concentration needed to bring the measured effect to its halfway point) was determined as 9200 ± 1100 nM. Further, the 90% effect concentration (EC90) (commonly the point of the concentration-response curve where the effect stands at 90%) in the data set on NL4-3 HIV-1 strain (Human immunodeficiency virus 1, NL43, multiple-round infection, from dose response curves, read-out: EC90 NL4-3) came out at 21 ± 7.2 nM. Also, the half-maximal effective concentration (EC50) with NL4-3 HIV-1 strain (Human immunodeficiency virus 1, NL43, multiple-round infection, mean ± SD, n > 5, read-out: EC50 NL4-3) is 12 ± 3 nM. In addition, the “Selectivity index CC50/EC50 NL4-3” value in the data set with NL4-3 HIV-1 strain was 2,333. In the data set with HXB2 HIV-1 strain, the concentration for a half-maximal effect (EC50) is 4.1 ± 0.7 nM. In addition, at HIV-1 IN (concentration for 50% maximum activation of multimerization), the concentration at half-maximal activity (AC50) (as a rule, the concentration giving half of the maximal activity seen) was found to be 47 ± 31 nM. The “IN multimerization Plateau” value on HIV-1 IN (maximum multimerization reached versus baseline) is listed as 500 ± 43%. Also, in data set [4], half-maximal cytotoxicity (CC50) was put at 28000 ± 3000 nM. In addition, inhibition in [5] was half-maximal at 430 ± 130 nM (IC50). The IC50 (commonly the concentration that inhibits the measured activity by half) in data set [6] came to 820 ± 380 nM. In addition, in [7], the “EC50 fold change compared to wild type NL4-3, A128T” value worked out at 4; the “EC50 fold change compared to wild type NL4-3, H171Q” value worked out at 2; the “EC50 fold change compared to wild type NL4-3, N222K” value amounted to 1; the “EC50 fold change compared to wild type NL4-3, T174I” value is on record as 15. Besides, the “EC50 fold change compared to wild type NL4-3, Y99H” value in [7] was determined as 2. Moreover, in data set [8] (read-out: EC50 33913N (B)), the 50% effective concentration (EC50) is 4.4 ± 1.9 nM. Moreover, the EC50 in data set [8] (read-out: EC50 HXB2 (B)) is 5.2 ± 3.9 nM. Also, the EC50 in data set [8] (read-out: EC50 KER2008 (A)) worked out at 11 ± 2 nM. The concentration giving a half-maximal response (EC50) in data set [8] (read-out: EC50 NL4-3 (B)) is 9.9 ± 1.1 nM. Moreover, in data set [8] (read-out: EC50 NP1525 (CRF01_AE)), the concentration for a half-maximal effect (EC50) is 10 ± 4 nM. Also, the concentration giving a half-maximal response (EC50) in data set [8] (read-out: EC50 NP1538 (B)) was 8.6 ± 0.5 nM. Moreover, in [9] (IN 124/125 AA), the “Fold change in EC50 relative to parental NL4-3, CAM2BBY (CRF02)” value was found to be 2; the “Fold change in EC50 relative to parental NL4-3, E0836M4 (D)” value came to 1; the “Fold change in EC50 relative to parental NL4-3, KER2008 (A)” value is listed as 1; the “Fold change in EC50 relative to parental NL4-3, NP1525 (CRF01)” value is listed as 2. Besides, in [9] (IN 124/125 AA), the “Fold change in EC50 relative to parental NL4-3, NP1695 (CRF02)” value was 1 and the “Fold change in EC50 relative to parental NL4-3, TZA125 (C)” value is recorded as 1. In data set [9] (IN 124/125 GA), the “Fold change in EC50 relative to parental NL4-3, KSM4030 (A)” value is 6 and the “Fold change in EC50 relative to parental NL4-3, vGA (C)” value amounted to 4. Besides, in [9] (IN 124/125 NA), the “Fold change in EC50 relative to parental NL4-3, 99ET14 (C)” value was found to be 210; the “Fold change in EC50 relative to parental NL4-3, NP1538 (B)” value amounted to 1; the “Fold change in EC50 relative to parental NL4-3, vNA_1 (B)” value was 23; the “Fold change in EC50 relative to parental NL4-3, vNA_2 (CRF02)” value stood at 23. For the same molecule, the “Fold change in EC50 relative to parental NL4-3, vNV (B)” value in data set [9] (IN 124/125 NV) stood at 34. Also, in [9] (IN 124/125 SA), the “Fold change in EC50 relative to parental NL4-3, vSA_1 (B)” value worked out at 12 and the “Fold change in EC50 relative to parental NL4-3, vSA_2 (CRF02)” value was 4. In data set [9] (IN 124/125 TA), the “Fold change in EC50 relative to parental NL4-3, vTA_1 (B)” value turned out to be 3 and the “Fold change in EC50 relative to parental NL4-3, vTA_2 (CRF02)” value was determined as 3. In [10], the “Fold change in EC50 relative to NL4-3, ARP-4595” value was determined as 1; the “Fold change in EC50 relative to NL4-3, ARP-4596” value was 0.5; the “Fold change in EC50 relative to NL4-3, ARP-11801” value was 1; the “Fold change in EC50 relative to NL4-3, ARP-11803” value is given as 1. In [10], the “Fold change in EC50 relative to NL4-3, ARP-11807” value came to 1 and the “Fold change in EC50 relative to NL4-3, ARP-11808” value was found to be 1.
With `Cc1nc2c(c(C)c(C)n2Cc2cnn(C)c2)c(-c2ccc(Cl)cc2)c1[C@H](OC(C)(C)C)C(=O)O` [STP0404, Pirmitegravir], in [11], the “tolerability in clinical phase I study” value is recorded as “Well tolerated”.
